Experimental data: patent publication US20100137448A1, “Methods for Treating Neuropsychiatric Disorders with NMDA Receptor Antagonists” (priority 2000, published 2010)
Entries after “also recorded” stand apart in the source; their conditions may differ.

What was measured:
[1] = system: precontracted aortic vessel; assay: Relaxation of norepinephrine-precontracted rabbit aortic rings; type: tissue-based
Experimental: New Zealand white female rabbits weighing 3-4 kilograms were anesthetized with sodium pentobarbital, 13 milligram per kilogram. Descending thoracic aorta were isolated, the vessels were cleaned of adherent tissue and the endothelium was removed by a gentle rubbing with a cotton-tipped applicator inserted into the lumen. The vessels were cut into 5 millimeter rings and mounted on stirrups connected to transducers by which changes in isometric tension were recorded (model TO3C, Grass Instruments, Quincy, Mass.). Vessel rings were suspended in 20 mL of oxygenated Krebs buffer at 37° C. and sustained contractions were induced with 1 μM norepinephrine. The vessels were then relaxed in a dose-dependent fashion ([…] through 10^−5 M compound 8). In some experiments vessels were pretreated with methylene blue or […] hemoglobin to block relaxations.
Relaxations were attenuated by methylene blue (c) and hemoglobin (d) indicating an NO-related effect. (b) is a control with solvent.

cerebrocortical neurons = assay: NMDA-induced apoptosis of cerebrocortical neurons (in vitro protection); type: cell-based
Experimental: Cerebrocortical cultures were exposed to 300 μM NMDA for 20 mm with or without various concentrations of compound 7. The next day cultures were analyzed by neuronal apoptosis as described in Example 19.
Under these conditions (300 μM NMDA exposure for 20 mm, followed by washout), neuronal apoptosis was monitored 24 hours later by propidium iodide uptake and morphology of fixed, permeabilized neurons, among other techniques (Bonfoco et al., Proc Natl Acad Sci USA (1995) 92: 7162). NMDA induced about 20% apoptosis of neurons, and that 25-100 μM compound 7 afforded protection from this damage (P<0.001, FIG. 5).

C57B1/6 mice = assay: Murine cerebral ischemia model, intraluminal suture MCA occlusion; type: in vivo
Experimental: The intraluminal suture technique was used to produce a 2 hr occlusion of the middle cerebral artery (MCA), following the same protocol for focal cerebral ischemial reperfusion as published previously (Chen, et al., Neuroscience (1998) 86: 1121). However, here C57B1/6 mice were used instead of rats. […] To produce a neuroprotective concentration of compound 7, the loading dose was 100 mg/kg i.p. and the maintenance dose was 40 mg/kg i.p. every 12 hr. In each case, drug or vehicle control was initially administered 2 hr after MCA occlusion. […] The animals were sacrificed and analyzed with TTC staining 48 hr after MCA occlusion (Chen, et al., Neuroscience (1998) 86: 1121).

human albumin = human albumin (Homo sapiens, UniProt P02768); details: cited from earlier work
Sequence of human albumin (P02768 25-609): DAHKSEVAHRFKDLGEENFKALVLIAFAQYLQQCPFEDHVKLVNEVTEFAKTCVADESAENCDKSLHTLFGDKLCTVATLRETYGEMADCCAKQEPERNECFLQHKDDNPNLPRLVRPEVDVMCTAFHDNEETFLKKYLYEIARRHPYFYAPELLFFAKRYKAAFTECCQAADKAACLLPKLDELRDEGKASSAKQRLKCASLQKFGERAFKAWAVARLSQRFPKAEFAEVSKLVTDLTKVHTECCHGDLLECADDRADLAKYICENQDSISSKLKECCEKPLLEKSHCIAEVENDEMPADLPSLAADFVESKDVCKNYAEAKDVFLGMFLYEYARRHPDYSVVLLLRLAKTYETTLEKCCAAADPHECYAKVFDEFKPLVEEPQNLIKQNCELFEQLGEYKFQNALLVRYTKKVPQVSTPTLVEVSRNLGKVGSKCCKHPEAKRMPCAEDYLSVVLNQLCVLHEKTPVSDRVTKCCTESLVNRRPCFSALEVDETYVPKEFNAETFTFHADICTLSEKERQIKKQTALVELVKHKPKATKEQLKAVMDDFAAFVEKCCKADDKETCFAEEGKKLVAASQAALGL

[2] = cited from earlier work
[3] = humans, 5 to 30 mg/day; cited from earlier work
[4] = loading dose 20 mg/kg i.p., maintenance 1 mg/kg/12 hours; cited from earlier work

1-amino-3,5-dimethyl-7-hydroxyadamantane hydrochloride [Compound 9]
effect on blood vessel, compared with solvent (EtOH) ([1]; FIG. 8, hydrochloride): either no effect or slight blood vessel contractions | effect on blood vessel, compared with solvent (EtOH) ([1]; FIG. 8, listed as compound 9, hydrochloride): either no effect or slight contractions of blood vessels

CC(=O)NC12CC3(C)CC(C)(CC(O)(C3)C1)C2 [Compound 3, 1-acetamido-3,5-dimethyl-7-hydroxyadamantane]
melting point: 194 to 195 °C

CC12CC3(C)CC(N)(C1)CC(O[N+](=O)[O-])(C2)C3.Cl [Compound 7, 1-amino-3,5-dimethyl-7-nitrateadamantane hydrochloride]
concentration affording protection from NMDA-induced apoptosis (cerebrocortical neurons; 300 μM NMDA 20 mm, washout, apoptosis monitored 24 hours later, NMDA induced about 20% apoptosis, P<0.001): 25 to 100 µM | NMDA-induced neuronal apoptosis (cerebrocortical neurons; 300 μM NMDA for 20 mm, analysed next day, various concentrations, dose-dependent, P<0.001, n=3 cultures): largely prevented | cerebral damage after stroke (C57B1/6 mice; 2 hr MCA occlusion, loading 100 mg/kg i.p., maintenance 40 mg/kg i.p. every 12 hr, first dose 2 hr after occlusion, TTC staining 48 hr, n=3, P<0.03 from control, P<0.05 from memantine): effective in decreasing cerebral damage after stroke | neuroprotection compared with memantine (C57B1/6 mice; memantine 20 mg/kg i.p. loading, 1 mg/kg/12 hours maintenance, compound 7 100 mg/kg i.p. loading, 40 mg/kg i.p. every 12 hr): more neuroprotective than memantine | effect on blood vessel at 10 μM ([1]; 10 μM concentration, FIG. 8): modest relaxation

CC(=O)NC12CC3(C)CC(C)(C1)CC(O[N+](=O)[O-])(C3)C2 [Compound 8, 1-acetamido-3,5-dimetbyl-7-nitrateadamantane]
effect on precontracted aortic vessel ([1]; endothelium-denuded rings, 1 μM norepinephrine): relaxes a precontracted aortic vessel in a dose-dependent fashion | relaxations after pretreatment with hemoglobin ([1]; vessels pretreated with hemoglobin): attenuated | relaxations after pretreatment with methylene blue ([1]; vessels pretreated with methylene blue): attenuated

CC12CC3(C)CC(O)(C1)CC(N(Cc1ccccc1)Cc1ccccc1)(C2)C3 [Compound 10, 1,1-dibenzylamino-3,5-dimethyl-7-hydroxy-adamantane]
effect on blood vessel, compared with solvent (EtOH) ([1]; FIG. 8): either no effect or slight contractions of blood vessels; also recorded: either no effect or slight blood vessel contractions

CC(=O)NC12CC3(C)CC(C)(CC(CO)(C3)C1)C2 [Compound 17, 1-Acetamido-3,5-dimethyl-7-hydroxymethyladamantane]
melting point: 152 to 153 °C

CC12CC3CC(C)(C1)CC(N)(C3)C2 [memantine, 1-amino-3,5-dimethyladamantane]
bound to human albumin (human albumin): < 10% | average half-life, first therapeutically relevant phase ([2]; biphasic elimination, first phase): 4 to 9 h | average half-life, second phase ([2]; biphasic elimination, second phase): 40 to 65 h | elimination by the renal route ([2]; in vivo): 75%-90% | fecal excretion ([2]; in vivo): 10%-25% | mean CSF/serum ratio [3]: 0.52 | parenchymal levels in the brain [4]: 1 to 10 µM
